Data as given in paper PMC12070228, “Investigations of Enteric-Coated Tablet Propyl Gallate-Induced Nephrotoxicity in Beagles as well as Human and Dog Renal Proximal Tubule Epithelial Cells” (ACS Pharmacology & Translational Science, 2025).

Assays:
[1] = Exposure comparison of PG and phase-I and phase-II metabolites in dog and human plasma; conditions: oral EC MEDI7219 tablets; samples through 8 h; human PG 800 mg (N = 8), dog PG 200 mg/kg/day (N = 6)
Method: Dog blood was collected via jugular vein in potassium (K2) EDTA tubes and processed to plasma. Samples were centrifuged at approximately 3000 rpm for 5 min at approximately 4 °C within 30 min of collection. Plasma samples were acidified with 1% (v/v) formic acid (FA) to avoid degradation of PG and metabolites in plasma within 20 min of the start of centrifugation and then stored frozen (≤-60 °C). Acidified plasma was extracted using internal standard-spiked solution (100 mM ammonium bicarbonate: acetonitrile = 1:4). Samples were then centrifuged to collect supernatant, followed by drying to completion. The dried samples were reconstituted with 200 uL of 0.1% (v/v) formic acid in water. Samples were vortexed and centrifuged before injection. In order to assess potential impact of hemolysis on qualification of PG and its metabolites, hemolyzed plasma was prepared by spiking fully hemolyzed whole blood at an indicated percentage into plasma.
Separations were conducted on a reversed-phase column (Phenomenex, Kinetex F5, 2.6 μm 100 Å, 100 × 4.6 mm) at a flow rate of 0.7 mL/min at 40 °C. Mobile phase A was 0.1% formic acid in water and mobile phase B was 0.1% formic acid in methanol. The samples were analyzed on a SCIEX 6500+ QTRAP under negative ESI mode. The total run time was 5.5 min. Eight calibration standards and three quality control (LQC, MQC and HQC) samples were used for quantification.
The primary metabolites of PG were measured in dog and human plasma following oral administration of EC MEDI7219 tablets to examine a potential mechanism of the PG-mediated renal toxicity in dog and its possible translatability to humans. Plasma concentrations of PG, its phase-I metabolites GA and 4OMGA and phase-II glucuronide and glutathione conjugates were measured. The human and dog samples, collected through 8 h after administration, were analyzed and the results were compared (Figure , Figure S5). Based on allometric scaling method the highest daily dose administered in humans was approximately 8-fold less compared with the dose level tested in dogs.
Human (H) data is in black. Dog (D) data is in red (study 002). Concentration (mM) is in log10 scale. Data was normalized to PG dose (mg/kg/day). N = 8 for human (PG dosed at 800 mg with MEDI7219 tablets). N = 6 for dogs (PG dosed at 200 mg/kg/day). Below LLOQ values were set to 1/2 LLOQ for the calculation.

[2] = test system: human RPTECs; test: GSH-Glo glutathione assay; format: cell-based; conditions: ~48 h, high concentrations
Method: (§1) Frozen RPTECs vials were removed from liquid nitrogen storage and placed in a 37 °C water bath until the contents were completely thawed. The cells were gently resuspended and dispensed into a cell culture flask at a seeding density of ∼7500 cells/cm^2. The flask was placed in a 37 °C, 5% CO2 incubator. Cell cultures were given fresh medium the following morning and then every other day until the cell culture was approximately 90% confluent. When the cell culture was 90% confluent, medium was removed and the cells were rinsed with warmed PBS. Cells were harvested and split into new flasks based on a cell density of 7500 cells/cm^2. Cells were incubated at 37 °C for 3 days, with fresh medium added each day. Cells were harvested and diluted with growth medium to a density of 200,000 cells/mL. 100 μL of cell suspension per well (20,000 cells/well) was added to a clear-bottom 96-well microplate for luminescence assays. The plated cells were incubated in the 37 °C incubator for 3 days.
(§2) Each test compound (PG, GA, 4OMPG and 4OMGA) was initially reconstituted using DMSO at a concentration of 250 mg/mL. Serial dilutions of each compound were performed to reach concentrations of 4000 μM, 2000 μM, 1000 μM, 500 μM, 250 μM, 125 μM, 62.5 μM, 31.3 μM using warmed fresh supplemented medium with 0.4% (v/v) DMSO for all concentration levels. 100 μL of media containing the compound solution was added to the cells. Final concentrations of the compounds were 2000 μM, 1000 μM, 500 μM, 250 μM, 125 μM, 62.5 μM, 31.3 μM, 15.7 μM. AZ13599185 (tubulysin, 100 or 500 ng/mL) or cisplatin (30 μg/mL) and buthionine sulfoximine (BSO, 200 μM) were used as positive controls for CTG and GSH assays, respectively. 0.2% (v/v) DMSO in medium was used as the control for both assays, corrsponding to the final cocnetration of DMSO in the well. Three replicates for each compound at each concentration were prepared. Six replicates of positive or negative controls were prepared. Cells were incubated at 37 °C for approximately 48 h.
(§3) Cell media were removed and cells were washed twice with 200 μL of PBS buffer per well. CTG and GSH assay reagents were added to the wells and the assays were performed following the protocols of the Promega assay kits. Briefly, to perform the CTG assay, 100 μL of CTG solution was added into each well. The plate was gently shaken and incubated in the dark for 30 min and luminescence was measured using a PerkinElmer VICTOR X3 plate reader. To perform the GSH assay, luciferin-NT substrate and glutathione S-transferase were mixed into the GSH-GLo solution. 100 μL of the mixed solution was added into each well. The plate was gently shaken and incubated in the dark for at least 30 min. 100 μL of Luciferin Detection Reagent was added per well. The plate was gently shaken and incubated in the dark for at least 15 min. Luminescence was measured using a PerkinElmer VICTOR X3 plate reader.
(§4) For cell-based assays, data was normalized to the negative control. Cell viability and GSH level were expressed as Cell viability or GSH level=Luminescence(each well)/Luminescence(average of DMSO negative control)

[3] = test system: dog RPTECs; test: GSH-Glo glutathione assay; format: cell-based; conditions: ~48 h, high concentrations
Method: as §1, §2, §3, §4

[4] = no reference given; cited from earlier work
[5] = test system: urine NGAL; conditions: dog, in vivo
Method: In the first investigative 4-week study (study 002), dogs received EC tablets consisting of different combinations of the clinical formulation excipients (Table ) with or without PG once daily for 27 days. For groups receiving tablets with PG, each EC tablet contained 100 mg PG; the number of tablets administered each day (13–20 placed in size 12 gelatin capsules) was adjusted based on the most recent body weight to yield a target PG dose level of 200 mg/kg/day. Scheduled necropsies of all surviving animals were conducted on day 28 of the dosing phase. Samples for PG toxicokinetics were collected on days 1, 14, 21, and 25 of the dosing-phase. On days 1, 14, and 21 samples were collected: predose and approximately 1, 2, 3, 4, 6, 8, 12, and 24 h postdose. Days 25: predose and approximately 1, 2, 3, 4, 6, 8, 10, and 24 h postdose. […] NGAL was measured using an ELISA method and normalized to urine creatinine. Blood samples for standard clinical chemistry parameters, including creatinine and urea nitrogen, were collected from fasted dogs twice prior to the predose phase and before daily dose administration on Days 7, 14, and 21 of the dosing phase, as well as on the day of scheduled necropsy; samples were measured on a clinical chemistry analyzer using a validated method.

| Compound | Plasma exposure, humans compared with dogs [1] | GSH levels at high concentrations [2] | other results |
| --- | --- | --- | --- |
| O=C(O)c1cc(O)c(O)c(OC2OC(C(=O)O)C(O)C(O)C2O)c1 (centres unmarked) [GA-3-Gluc, gallic acid-3-glucoronide] | lower exposure | – | – |
| CCCOC(=O)c1cc(O)c(OC)c(O)c1 [Group 4OMPG, 4-O-methyl propyl gallate, reference compound] | – | increases of GSH | – |
| COc1c(O)cc(C(=O)O)cc1O [Group 4OMGA, 4-O-methyl gallic acid] | comparable between the two species | – | – |
| O=C(O)c1cc(O)c(O)c(O)c1 [GA, Gallic acid] | comparable between the two species | reduction of GSH levels | GSH levels at high concentrations [3]: reduction of GSH levels; Log P [4]: 0.91 |
| C[C@H](CCC(=O)[O-])[C@H]1CC[C@H]2[C@@H]3[C@H](O)C[C@@H]4C[C@H](O)CC[C@]4(C)[C@H]3CC[C@]12C.[Na+] [NaCDC, sodium chenodeoxycholate] | – | – | Urine NGAL levels [5]: did not induce elevations in NGAL levels |
